Among the data in ChEMBL document CHEMBL5154725, “SAR evolution towards potent C-terminal carboxamide peptide inhibitors of Zika virus NS2B-NS3 protease” (Bioorg Med Chem, 2022) are IC50 values, retold here.

The test in a line: Inhibition of 6-His tagged-G4SG4 fused ZIKV NS2B (49 to 95 residues) R95A mutant-NS3 (1 to 170 residue) R29G mutant expressed in Escherichia coli BL21 (DE3) using Bz-Nle-K-RR-AMC substrate preincubated for 10 mins followed by substrate addition and measured after 30 mins by fluorescence assay. Set-up: species or system Zika virus.

The term IC50 denotes the concentration that inhibits the measured activity by half. The low end stands for greater potency, the high end for weaker potency.

Non-standard residues stand in square brackets, D forms with d. Residues, ends and D or L forms follow the SMILES beside them. *: point of attachment. Phe(4-CONH2) = NC(=O)c1ccc(C[C@H](N)C(=O)O)cc1; AEF = NCCOc1ccc(C[C@H](N)C(=O)O)cc1; Lys(Me2) = CN(C)CCCC[C@H](N)C(=O)O; Hydrocinnamoyl = O=C(CCc1ccccc1)*; hLys = NCCCCC[C@H](N)C(=O)O; PhAc = O=C(Cc1ccccc1)*; NHCH2CH2OH = OCCN*

In turn, `N=C(N)NCCC[C@H](NC(=O)[C@H](CCCCN)NC(=O)[C@H](CCCCN)NC(=O)Cc1ccccc1)C(=O)NCC1CCCCC1` gave an IC50 of 1.8 µM.

`N=C(N)NCCC[C@H](NC(=O)c1cccs1)C(=O)N[C@@H](CCCCN)C(=O)N[C@H](C(N)=O)c1ccc(OCCc2ccccc2)cc1` showed an IC50 of 9.4 µM.

Regarding `NCCCC[C@H](NC(=O)Cc1ccccc1)C(=O)N[C@@H](CCCCN)C(=O)N[C@@H](C(=O)NCc1ccccc1)c1ccccc1`, the IC50 was found to be 1.9 µM.

Turning to `NCCCC[C@H](NC(=O)c1ccccc1)C(=O)N[C@@H](CCCCN)C(=O)N[C@H](C(=O)NCc1ccccc1)c1ccc(OCc2ccc(C(F)(F)F)cc2)cc1`, it took 0.09 µM to reach half-maximal inhibition (IC50).

In turn, `COc1ccc([C@H](NC(=O)[C@H](CCCCN)NC(=O)[C@H](CCCNC(=N)N)NC(=O)c2cccs2)C(N)=O)cc1` had an IC50 of 44.3 µM.

The molecule `NCCCC[C@H](NC(=O)c1cccs1)C(=O)N[C@@H](CCCCN)C(=O)N[C@H](C(=O)NCc1ccc(OCc2ccc(C(F)(F)F)cc2)cc1)c1ccccc1` registered an IC50 of 0.2 µM.

For the molecule `NCCCC[C@H](NC(=O)Cc1ccncc1)C(=O)N[C@@H](CCCCN)C(=O)N[C@H](C(=O)NCc1ccccc1)c1ccc(OCc2ccc(C(F)(F)F)cc2)cc1`, the IC50 stood at 0.069 µM.

For `NCCCC[C@H](NC(=O)Cc1ccccc1)C(=O)N[C@@H](CCCCN)C(=O)N[C@H](C(=O)NCc1ccc(Cl)cc1)c1ccc(OCc2ccc(C(F)(F)F)cc2)cc1`, the IC50 was determined as 0.16 µM.

`N=C(N)NCCC[C@H](NC(=O)[C@H](CCCCN)NC(=O)[C@H](CCCCN)NC(=O)Cc1cccs1)C(N)=O` registered an IC50 of 16.5 µM.

`N=C(N)NCCC[C@H](NC(=O)c1cccs1)C(=O)N[C@@H](CCCCN)C(=O)N[C@H](C(N)=O)c1ccc(OCc2ccncc2)cc1` had an IC50 of 12.1 µM.

Consider `N=C(N)NCCC[C@H](NC(=O)c1cccs1)C(=O)N[C@@H](CCCCN)C(=O)NC(C(N)=O)c1ccc(-c2ccc(C(F)(F)F)cc2)cc1` (mixture of isomers), for which half-maximal inhibition (IC50) required 6.1 µM.

Take `NCCCC[C@H](NC(=O)Cc1ccccc1)C(=O)N[C@@H](CCCCN)C(=O)N[C@H](C(=O)NCc1cc(Cl)cc(Cl)c1)c1ccccc1`: the IC50 amounted to 0.32 µM. Against the preceding molecule, the IC50 is about 19-fold lower.

With `N#Cc1ccc(COc2ccc([C@H](NC(=O)[C@H](CCCCN)NC(=O)[C@H](CCCNC(=N)N)NC(=O)c3cccs3)C(N)=O)cc2)cc1`, the IC50 amounted to 27.3 µM.

Take `N=C(N)NCCC[C@H](NC(=O)[C@H](CCCCN)NC(=O)[C@H](Cc1ccc(OCCN)cc1)NC(=O)Cc1ccccc1)C(N)=O` (PhAc-[AEF]-Lys-Arg-NH2): the IC50 is 30.7 µM.

Take `N=C(N)NCCC[C@H](NC(=O)[C@H](CCCCCN)NC(=O)[C@H](CCCCN)NC(=O)Cc1ccccc1)C(N)=O` (PhAc-Lys-[hLys]-Arg-NH2): it took 2.7 µM to reach half-maximal inhibition (IC50).

For the molecule `N=C(N)NCCC[C@H](NC(=O)[C@H](CCCCN)NC(=O)[C@H](CCCCN)NC(=O)C(F)c1ccccc1)C(N)=O` (mixture of isomers), the IC50 was 4.94 µM.

`NCCCC[C@H](NC(=O)Cc1ccccc1)C(=O)N[C@@H](CCCCN)C(=O)N[C@H](C(=O)NCC1CCNCC1)c1ccc(OCc2ccc(C(F)(F)F)cc2)cc1` gave an IC50 of 0.35 µM.

Take `CN(C)CCCC[C@H](NC(=O)[C@H](CCCCN)NC(=O)Cc1ccccc1)C(=O)N[C@@H](CCCNC(=N)N)C(N)=O` (PhAc-Lys-[Lys(Me2)]-Arg-NH2): half-maximal inhibition (IC50) was put at 25.1 µM.

`NCCCC[C@H](NC(=O)Cc1ccccc1)C(=O)N[C@@H](CCCCN)C(=O)N[C@H](C(N)=O)c1ccccc1` yielded an IC50 of 7 µM.

In turn, `N=C(N)NCCC[C@H](NC(=O)[C@H](Cc1ccc(C(N)=O)cc1)NC(=O)[C@H](CCCCN)NC(=O)Cc1ccccc1)C(N)=O` (PhAc-Lys-[Phe(4-CONH2)]-Arg-NH2) returned an IC50 greater than 100 µM.

For `NCCCC[C@H](NC(=O)Cc1ccc(Cl)c(Cl)c1)C(=O)N[C@@H](CCCCN)C(=O)N[C@H](C(=O)NCc1ccc(OCc2ccc(C(F)(F)F)cc2)cc1)c1ccccc1`, inhibition was half-maximal at 0.17 µM (IC50).

With `NCCCC[C@H](NC(=O)Oc1ccccc1)C(=O)N[C@@H](CCCCN)C(=O)N[C@H](C(=O)NCc1ccccc1)c1ccc(OCc2ccc(C(F)(F)F)cc2)cc1`, the IC50 turned out to be 0.84 µM.

On to `N=C(N)NCCC[C@H](NC(=O)[C@H](CCCCN)NC(=O)[C@H](CCCCN)NC(=O)Cc1ccc(-c2ccccc2)cc1)C(N)=O`, for which the IC50 was 1.55 µM. This IC50 is about 1.8-fold higher than that of the molecule before.

As to `N=C(N)NCCC[C@H](NC(=O)c1cccs1)C(=O)N[C@@H](CCCCN)C(=O)N[C@H](C(N)=O)c1ccc(OCc2ccc(C(F)(F)F)cc2)cc1`, the midpoint of inhibition, the IC50, lay at 2.5 µM.

Consider `NCCCC[C@H](NC(=O)Cc1ccccc1)C(=O)N[C@@H](CCCCN)C(=O)N[C@H](C(=O)NCC1CCCCC1)c1ccccc1`, for which the IC50 is 0.69 µM.

`N=C(N)NCCC[C@H](NC(=O)[C@H](CCCCN)NC(=O)[C@H](CCCCN)NC(=O)Cc1ccccc1)C(=O)O` (PhAc-Lys-Lys-Arg-OH) registered an IC50 of 41 µM.

As to `NCCCC[C@H](NC(=O)[C@H](CCCCN)NS(=O)(=O)Cc1ccccc1)C(=O)N[C@H](C(=O)NCc1ccccc1)c1ccc(OCc2ccc(C(F)(F)F)cc2)cc1`, the IC50 is 1.8 µM.

The molecule `N=C(N)NCCC[C@H](NC(=O)c1cccs1)C(=O)N[C@@H](CCCCN)C(=O)N[C@H](C(N)=O)c1ccc(OCC2CCCCC2)cc1` yielded a 50% inhibitory concentration (IC50) of 10.8 µM.

Consider `N=C(N)NCC[C@H](NC(=O)[C@H](CCCCN)NC(=O)[C@H](CCCCN)NC(=O)Cc1ccc(Cl)c(Cl)c1)C(=O)NCC1CCCCC1`, for which the IC50 was 1.7 µM. This IC50 is about 6.4-fold lower than that of the molecule before.

Consider `N=C(N)NCCC[C@H](NC(=O)[C@H](CCCCN)NC(=O)[C@H](Cc1cccc(CN)c1)NC(=O)Cc1ccccc1)C(N)=O`, for which the IC50 amounted to 37.5 µM.

Turning to `N=C(N)CCCC[C@H](NC(=O)[C@H](CCCCN)NC(=O)[C@H](Cc1ccc(C(N)=O)cc1)NC(=O)Cc1ccccc1)C(N)=O`, the midpoint of inhibition, the IC50, lay at 42.3 µM.

The molecule `N=C(N)NCCC[C@H](NC(=O)[C@H](CCCCN)NC(=O)[C@H](CCCCN)NC(=O)Cc1ccccc1)C(=O)NCc1cccnc1` had an IC50 of 10.4 µM.

`N=C(N)NCCC[C@H](NC(=O)c1cccs1)C(=O)N[C@@H](CCCCN)C(=O)N[C@H](C(N)=O)c1ccc(OC2CCc3ccccc32)cc1` (mixture of isomers) came in with an IC50 of 6.4 µM.

Molecule `NCCCC[C@H](NC(=O)Cc1ccccc1)C(=O)N[C@@H](CCCCN)C(=O)N[C@H](C(=O)NCc1ccc(O)cc1)c1ccccc1` returned an IC50 of 0.37 µM. Compared with the last molecule, the IC50 is about 17-fold lower.

In turn, `N=C(N)NCCC[C@H](NC(=O)[C@H](CCCCN)NC(=O)[C@H](CCCCN)NC(=O)CCc1ccccc1)C(N)=O` (Hydrocinnamoyl-Lys-Lys-Arg-NH2) displayed an IC50 of 9.35 µM. This IC50 is about 25-fold higher than that of the molecule before.

Molecule `NCCCCC(NC(=O)Cc1ccccc1)C(=O)N[C@@H](CCCCN)C(=O)NC(C(=O)NCc1ccccc1)c1ccc(OCc2ccc(C(F)(F)F)cc2)cc1` (single isomer, unassigned) returned an IC50 of 1.12 µM.

`COc1ccc(CC(=O)N[C@@H](CCCCN)C(=O)N[C@@H](CCCCN)C(=O)N[C@H](C(=O)NCc2ccccc2)c2ccc(OCc3ccc(C(F)(F)F)cc3)cc2)cc1` registered an IC50 of 0.27 µM.

`N=C(N)NCCC[C@H](NC(=O)[C@H](CCCCN)NC(=O)[C@H](CCCCN)NC(=O)Cc1nccs1)C(N)=O`: the IC50 amounted to 22.7 µM.

`N=C(N)NCCC[C@H](NC(=O)Cc1ccccc1)C(=O)N[C@@H](CCCCN)C(=O)N[C@H](C(N)=O)c1ccc(OCc2ccc(C(F)(F)F)cc2)cc1` returned an IC50 of 31.8 µM.

In turn, `NCCCC[C@H](NC(=O)Cc1ccc(Cl)c(Cl)c1)C(=O)N[C@@H](CCCCN)C(=O)N[C@H](C(=O)NCc1ccccc1)c1ccc(OCc2ccc(C(F)(F)F)cc2)cc1` had a half-inhibitory concentration (IC50) of 0.17 µM.

Molecule `N=C(N)NCCC[C@H](NC(=O)c1cccs1)C(=O)N[C@@H](CCCCN)C(=O)N[C@H](C(N)=O)c1ccc(OCCN2CCCCC2)cc1` had an IC50 of 3 µM.

Consider `N=C(N)NCCC[C@H](NC(=O)c1cccs1)C(=O)N[C@@H](CCCCN)C(=O)N[C@H](C(N)=O)c1ccc(OCCN2CCOCC2)cc1`, for which the IC50 came to 22 µM.

`NCCCC[C@H](NC(=O)Nc1ccccc1)C(=O)N[C@@H](CCCCN)C(=O)N[C@H](C(=O)NCc1ccccc1)c1ccc(OCc2ccc(C(F)(F)F)cc2)cc1` yielded an IC50 of 0.16 µM.

With `NCCCC[C@H](NC(=O)Cc1ccccc1)C(=O)N[C@@H](CCCCN)C(=O)N[C@@H](C(N)=O)c1ccccc1`, the IC50 came out at 15 µM.

The molecule `N=C(N)NCCC[C@H](NC(=O)[C@H](Cc1ccc(OCCN)cc1)NC(=O)[C@H](CCCCN)NC(=O)Cc1ccccc1)C(N)=O` (PhAc-Lys-[AEF]-Arg-NH2) showed an IC50 greater than 100 µM.

Molecule `NCCCC[C@H](NC(=O)Cc1ccccc1)C(=O)N[C@@H](CCCCN)C(=O)N[C@H](C(=O)NCc1ccc2c(c1)OCO2)c1ccc(OCc2ccc(C(F)(F)F)cc2)cc1` had an IC50 of 0.06 µM.

`COc1ccc(CNC(=O)[C@@H](NC(=O)[C@H](CCCCN)NC(=O)[C@H](CCCCN)NC(=O)Cc2ccccc2)c2ccc(OCc3ccc(C(F)(F)F)cc3)cc2)cc1` showed an IC50 of 0.13 µM.

As for `CN(Cc1ccccc1)C(=O)[C@@H](NC(=O)[C@H](CCCCN)NC(=O)[C@H](CCCCN)NC(=O)Cc1ccccc1)c1ccc(OCc2ccc(C(F)(F)F)cc2)cc1`, the IC50 turned out to be 4.7 µM. This IC50 lies about 36-fold higher than the previous one.

`NCCCC[C@H](NC(=O)Cc1ccccc1)C(=O)N[C@@H](CCCCN)C(=O)N[C@H](C(=O)NCc1cccnc1)c1ccc(OCc2ccc(C(F)(F)F)cc2)cc1` returned an IC50 of 0.28 µM.

The molecule `NCCCC[C@H](NC(=O)Cc1ccccc1)C(=O)N[C@@H](CCCCN)C(=O)N[C@H](C(N)=O)c1ccc(OCc2ccc(C(F)(F)F)cc2)cc1` had an IC50 of 9.2 µM.

In the case of `N=C(N)NCCC[C@H](NC(=O)[C@H](CCCCN)NC(=O)[C@H](CCCCN)NC(=O)Cc1ccccc1)C(=O)NCCO` (PhAc-Lys-Lys-Arg-NHCH2CH2OH), the IC50 was determined as 10.8 µM.

The molecule `CN1CCC(CNC(=O)[C@H](CCCNC(=N)N)NC(=O)[C@H](CCCCN)NC(=O)[C@H](CCCCN)NC(=O)Cc2ccccc2)CC1` returned an IC50 of 7.8 µM. This IC50 and that of the molecule before are within 1.5-fold of each other.

As for `N=C(N)NCCC[C@H](NC(=O)[C@H](CCCCN)NC(=O)[C@H](CCCCN)NC(=O)Cc1ccccc1)C(=O)NCc1ccncc1`, it took 14.1 µM to reach half-maximal inhibition (IC50).

In turn, `NCCCC[C@H](NC(=O)Cc1ccccc1)C(=O)N[C@@H](CCCCN)C(=O)N[C@H](C(=O)NCc1ccccc1)c1ccc(OCc2ccc(C(F)(F)F)cc2)cc1` displayed an IC50 of 0.09 µM.

The molecule `N=C(N)NCCC[C@H](NC(=O)c1cccs1)C(=O)N[C@@H](CCCCN)C(=O)N[C@@H](C(=O)NCc1ccccc1)c1ccc(OCc2ccc(C(F)(F)F)cc2)cc1` came in with an IC50 of 0.92 µM.
